Reference: patent US20150189883A1, “METHODS OF CONTROLLING INSECTS” (Syngenta Participations AG, priority 2012, published 2015)
Like-named read-outs stand apart in the source and are kept apart here.

Legend:
[1] = system: Chilo suppressalis (Rice Stem Borer); test: Chilo suppressalis (Rice Stem Borer) treated rice leaf petri dish test, mortality; type: in vivo; conditions: read-out: Control/%
Experimental: Nephotettix virescens (Green Leafhopper) Rice seedlings are treated with the diluted test solutions in a spray chamber. After drying, plants are infested with 10 N5 nymphs (3 replicates). 5 days after the treatment samples are checked for mortality. […] After drying, plants are infested with 20 N3 nymphs (2 replicates). 6-12 days after the treatment samples are checked for mortality. […] 10 larvae (L2) are added and the dish is covered with a filter tissue and a plastic lid. 5 days after treatment the percentage mortality is assessed (3 replicates per concentration).
The data in the comparative Examples below were obtained using the methods described above.

[2] = system: Nilaparvata lugens (Brown Plant Hopper); test: Nilaparvata lugens (Brown Plant Hopper) rice seedling spray test, mortality; type: in vivo; conditions: read-out: Control/%
[3] = Chilo suppressalis (Rice stem borer), application rate 0.2 ppm
[4] = Chilo suppressalis (Rice stem borer), application rate 0.8 ppm
[5] = Nilaparvata lugens (Brown plant hopper), application rate 25 ppm
[6] = Nilaparvata lugens (Brown plant hopper), application rate 50 ppm

Structure (SMILES) | pest or weed control at 0.2 ppm ([1]; Chilo suppressalis) [%] | pest or weed control at 0.8 ppm ([1]; Chilo suppressalis) [%] | pest or weed control at 25 ppm ([2]; Nilaparvata lugens) [%] | pest or weed control at 50 ppm ([2]; Nilaparvata lugens) [%] | also measured
Cc1cc(C2=NOC(c3cc(Cl)cc(Cl)c3)(C(F)(F)F)C2)ccc1C(=O)NC1CSC1 (stereo not shown) [Compound of the invention] | 93 | 100 |  |  | 
Cc1cc(C2=NOC(c3cc(Cl)cc(Cl)c3)(C(F)(F)F)C2)ccc1C(=O)NC1(C)CSC1 (stereo not shown) [Reference compound, reference compound] | 30 | 40 |  |  | 
Cc1cc(C2=NCC(c3cc(Cl)cc(Cl)c3)(C(F)(F)F)C2)ccc1C(=O)NC1CSC1 (stereo not shown) [drawing 21] |  |  |  |  | pest or weed control at 0.2 ppm [1, 3]: 40%; pest or weed control at 0.8 ppm [1, 4]: 90%
Cc1cc(C2=NCC(c3cc(Cl)cc(Cl)c3)(C(F)(F)F)C2)ccc1C(=O)NC1(C)CSC1 (stereo not shown) [drawing 22] |  |  |  |  | pest or weed control at 0.2 ppm [1, 3]: 30%; pest or weed control at 0.8 ppm [1, 4]: 60%
Cc1cc(C2=NCC(c3cc(Cl)cc(Cl)c3)(C(F)(F)F)C2)ccc1C(=O)NC1CS(=O)(=O)C1 (stereo not shown) [drawing 23] |  |  |  |  | pest or weed control at 0.2 ppm [1, 3]: 97%; pest or weed control at 0.8 ppm [1, 4]: 100%
Cc1cc(C2=NCC(c3cc(Cl)cc(Cl)c3)(C(F)(F)F)C2)ccc1C(=O)NC1(C)CS(=O)(=O)C1 (stereo not shown) [drawing 24] |  |  |  |  | pest or weed control at 0.2 ppm [1, 3]: 23%; pest or weed control at 0.8 ppm [1, 4]: 60%
Cc1cc(C2=NOC(c3cc(Cl)c(Br)c(Cl)c3)(C(F)(F)F)C2)ccc1C(=O)NC1CSC1 (stereo not shown) [drawing 25] | 97 | 100 |  |  | 
Cc1cc(C2=NOC(c3cc(Cl)c(Br)c(Cl)c3)(C(F)(F)F)C2)ccc1C(=O)NC1(C)CSC1 (stereo not shown) [drawing 26] | 40 | 80 |  |  | 
O=C(NC1CSC1)c1ccc(C2=NO[C@@](c3cc(Cl)cc(Cl)c3)(C(F)(F)F)C2)cc1Cl [drawing 27] | 93 | 100 |  |  | 
CC1(NC(=O)c2ccc(C3=NO[C@@](c4cc(Cl)cc(Cl)c4)(C(F)(F)F)C3)cc2Cl)CSC1 [drawing 28] | 80 | 97 |  |  | 
Cc1cc(C2=NOC(c3cc(Cl)cc(Cl)c3)(C(F)(F)F)C2)ccc1C(=O)NC1CSC1 (stereo not shown) [drawing 29] |  |  | 44 | 79 | 
Cc1cc(C2=NOC(c3cc(Cl)cc(Cl)c3)(C(F)(F)F)C2)ccc1C(=O)NC1(C)CSC1 (stereo not shown) [drawing 30] |  |  | 0 | 0 | 
Cc1cc(C2=NCC(c3cc(Cl)cc(Cl)c3)(C(F)(F)F)C2)ccc1C(=O)NC1CSC1 (stereo not shown) [drawing 31] |  |  |  |  | pest or weed control at 25 ppm [2, 5]: 100%; pest or weed control at 50 ppm [2, 6]: 100%
Cc1cc(C2=NCC(c3cc(Cl)cc(Cl)c3)(C(F)(F)F)C2)ccc1C(=O)NC1(C)CSC1 (stereo not shown) [drawing 32] |  |  |  |  | pest or weed control at 25 ppm [2, 5]: 0%; pest or weed control at 50 ppm [2, 6]: 0%
Cc1cc(C2=NCC(c3cc(Cl)cc(Cl)c3)(C(F)(F)F)C2)ccc1C(=O)NC1CS(=O)(=O)C1 (stereo not shown) [drawing 33] |  |  |  |  | pest or weed control at 25 ppm [2, 5]: 93%; pest or weed control at 50 ppm [2, 6]: 100%
Cc1cc(C2=NCC(c3cc(Cl)cc(Cl)c3)(C(F)(F)F)C2)ccc1C(=O)NC1(C)CS(=O)(=O)C1 (stereo not shown) [drawing 34] |  |  |  |  | pest or weed control at 25 ppm [2, 5]: 0%; pest or weed control at 50 ppm [2, 6]: 0%
Cc1cc(C2=NOC(c3cc(Cl)c(Br)c(Cl)c3)(C(F)(F)F)C2)ccc1C(=O)NC1CSC1 (stereo not shown) [drawing 35] |  |  | 30 | 80 | 
Cc1cc(C2=NOC(c3cc(Cl)c(Br)c(Cl)c3)(C(F)(F)F)C2)ccc1C(=O)NC1(C)CSC1 (stereo not shown) [drawing 36] |  |  | 0 | 0 | 
O=C(NC1CSC1)c1ccc(C2=NO[C@@](c3cc(Cl)cc(Cl)c3)(C(F)(F)F)C2)cc1Cl [drawing 37] |  |  | 15 | 45 | 
CC1(NC(=O)c2ccc(C3=NO[C@@](c4cc(Cl)cc(Cl)c4)(C(F)(F)F)C3)cc2Cl)CSC1 [drawing 38] |  |  | 0 | 30 | 
